# From patent US20080045547A1, “Salts And Co-Crystals of Pyrazolopyrimidine Compounds, Compositions Thereof And Methods For Their Production And Use” (priority 2006, published 2008)
# Where “and” joins values, the source holds several entries; their conditions need not be identical. Equal values may be shown once.
# Columns and labels:
# [1] = Pharmacokinetics of indiplon after oral administration of free base or HBr co-crystal suspension; assay type: in vivo, male beagle dogs; details: male dogs; for AUC(0-t) / Cmax / Tmax: single oral dose 5 mg free base/kg, 0.5% methylcellulose suspension
# Protocol: The purpose of this study was to determine the pharmacokinetics of indiplon following oral administration of the free base and the HBr co-crystal in a suspension to male beagle dogs.
# The test compounds used in the study were the free base and […] of indiplon. The compounds were stored at approximately 2-8° C.
# Five male purebred beagles were transferred to the study from a stock colony. Each animal was identified with an individually numbered ear tattoo. The animals were acclimated for 5 days. At the time of dose administration, animals were young adult/adult age. During acclimation and the test period, animals were individually housed in wire-mesh enclosures with coated rod-bottom floors. Animals were not comingled for at least 24 hours after each dose administration to allow monitoring of any test compound-related effects. Animals had access to non-certified Canine Diet #5L03 (PMI Feeds, Inc.) ad libitum, except as specified for dose administration.
# (§1) The test compounds were prepared in 0.5% methylcellulose. The target concentrations of the free base and HBr salt were 1.0 and 1.34 mg/mL (equivalent to 1 mg of the free base), respectively. The liquid suspensions were administered via oral gavage. Prior to removing the gavage tube, the tube was flushed with approximately 5 mL of water.
# (§2) Blood (approximately 2 mL) was collected from a jugular vein via syringe and needle and transferred into tubes containing K2EDTA anticoagulant predose and at 0.5, 1, 2, 3, 4, 6, 8, 12, and 24 hours postdose. Blood was maintained on wet ice, in chilled Kryoracks, or at approximately 5° C. prior to centrifugation to obtain plasma. Centrifugation began within 1 hour of collection. Plasma was placed on dry ice prior to storage at approximately −70° C. Plasma samples, remaining test compounds, and remaining dose formulations were shipped on dry ice to the analysis site and stored at approximately −70° C. before and after analysis. Samples were analyzed using an LC/MS/MS method. Plasma concentration-time data for each dog and formulation were analyzed using a noncompartmental model assumption with WinNonlin, version 4.1 (Pharsight Corporation, Mountain View, Calif.). All calculations were based on the nominal times as actual sample collection times departed minimally from the schedule times.
# [2] = Equilibrium aqueous solubility from solid; assay type: physicochemical; details: H20; room temperature overnight
# Protocol: Samples of the ocinaplon salts shown above were evaluated for equilibrium aqueous solubility from solid. Duplicate samples of ocinaplon were accurately weighed and diluted to 1 ml with water to 6.83 mg/ml and 6.43 mg/ml. Duplicate samples of Ocinaplon di HCl salt were accurately weighed and diluted to 1 ml with water to 5.5 mg/ml and 6.0 mg/ml. Ocinaplon di HBr salt was accurately weighed and diluted to 1 ml with water to 6.1 mg/ml and 5.8 mg/ml. Ocinaplon disulfate salt was accurately weighed and diluted to 1 ml with water to 7.5 mg/ml and 6.5 mg/ml. Any change in pH of the water following sample addition was recorded. After equilibration at room temperature overnight the solutions were filtered and solute concentration determined by fast gradient HPLC with UV/VIS/MS detection with reference to 5, 10, 50, 100 and 250 μM analytical standards. Prior to sample filtration, filters were primed with 600 μl of sample to resolve potential adsorption problems. Both sample replicates were collected through the primed filter. Duplicate determinations were made in all cases.
# [3] = Pharmacokinetics of different salt forms of ocinaplon after a single oral dose; assay type: in vivo; details: dog, plasma, male beagle dogs, 0.5% MC; for AUC(0-inf) / AUC(0-t) / Cmax: male, beagle, po
# Protocol: as §1, §2
# The pharmacokinetic parameters of different pyrazolopyrimidine acid salts vary in an apparently salt and compound dependent fashion. This is illustrated by a comparison of the pharmacokinetic properties of different acid salts of the pyrazolopyrimidine, ocinaplon. This study was performed in a manner similar to the study described in Example 9 hereinabove. The concentrations of the HCl, HBr and disulfate salts of ocinaplon were 3.72 mg/mL, 4.61 mg/mL and 4.95 mg/mL, respectively. All concentrations were calculated to be 3.0 mg free base/mL; the dose volume was […]. […] […] These findings exemplify and underscore the differences in pharmacokinetic profiles among these three exemplary salts of ocinaplon.
# [4] = Plasma pharmacokinetic comparison of zaleplon free base and HCl salt after single oral doses; assay type: in vivo; details: male beagle dogs; for AUC(0-inf) / AUC(0-t) / Cmax / Tmax: male, beagle, dog, plasma, po
# [5] = dog CTZBCG, listed as Free Base Suspension
# [6] = dog CUPBEG, listed as Free Base Suspension
# [7] = dog CUVBAT, listed as Free Base Suspension
# [8] = single oral dose 50 mg/kg, mean (CV %)
# [9] = 30 mg/kg, apparently scaled from 50 mg/kg
# [10] = 50 mg/kg, single oral dose 50 mg/kg, mean (CV %)
# [11] = Mean, N = 5, listed as HBr Salt Suspension
# [12] = dog CUPBEG, listed as HBr Salt Suspension
# [13] = dog CUVBAT, listed as HBr Salt Suspension
# [14] = dog CVRCVX, listed as HBr Salt Suspension
# [15] = dog CVSCCL, listed as HBr Salt Suspension
# [16] = 2.5 mg HCl Salt/kg, single oral dose 2.5 mg HCl Salt/kg, Mean of 5 dogs
# [17] = 2.5 mg HCl Salt/kg, single oral dose 2.5 mg HCl Salt/kg, dog CLT-2
# [18] = 2.5 mg HCl Salt/kg, single oral dose 2.5 mg HCl Salt/kg, dog H0M004
# [19] = 2.5 mg HCl Salt/kg, single oral dose 2.5 mg HCl Salt/kg, dog H1B108
# [20] = 2.5 mg HCl Salt/kg, single oral dose 2.5 mg HCl Salt/kg, dog TDR2
# [21] = 2.5 mg HCl Salt/kg, single oral dose 2.5 mg HCl Salt/kg, dog TKR-2
# [22] = 5 mg/kg, single oral dose 5.0 mg Free Base/kg, Mean of 5 dogs
# [23] = 5 mg/kg, single oral dose 5.0 mg Free Base/kg, dog CLT-2
# [24] = 5 mg/kg, single oral dose 5.0 mg Free Base/kg, dog H0M004
# [25] = 5 mg/kg, single oral dose 5.0 mg Free Base/kg, dog H1B108
# [26] = 5 mg/kg, single oral dose 5.0 mg Free Base/kg, dog TDR2
# [27] = 5 mg/kg, single oral dose 5.0 mg Free Base/kg, dog TKR-2
structure (smiles),measurement,setting,value
"CC(=O)N(C)c1cccc(-c2ccnc3c(C(=O)c4cccs4)cnn23)c1 [Indiplon free base, N-methyl-N-{3-[3-(thiophene-2-carbonyl)-pyrazolo[1,5-a]pyrimidin-7-yl]-phenyl}acetamide, reference compound]",AUC(0-t),"[1]; Mean, N = 5, listed as Free Base Suspension",250 ng·h/mL
same,AUC(0-t),[1]; [5],408 ng·h/mL
same,Cmax,[1]; [5],266 ng/mL
same,AUC(0-t),[1]; [6],160 ng·h/mL
same,Cmax,[1]; [6],106 ng/mL
same,Tmax,[1]; [6],60 min
same,AUC(0-t),[1]; [7],125 ng·h/mL
same,Cmax,[1]; [7],101 ng/mL
same,AUC(0-t),"[1]; dog CVSCCL, listed as Free Base Suspension",277 ng·h/mL
same,Cmax,"[1]; male, beagle, dog, plasma, po, 5 mg/kg, Mean, N = 5, read-out: Cmax",185 ng/mL
same,Tmax,"[1]; male, beagle, dog, plasma, po, 5 mg/kg, Mean, N = 5, read-out: Tmax",36 min
same,Tmax,"[1]; male, beagle, dog, plasma, po, 5 mg/kg, dog CUVBAT, read-out: Tmax",30 min
same,AUC(0-t),"[1]; male, beagle, dog, plasma, po, 5 mg/kg, dog CVRCVX, read-out: AUC0-t",279 ng·h/mL
same,Cmax,"[1]; male, beagle, dog, plasma, po, 5 mg/kg, dog CVRCVX, read-out: Cmax",212 ng/mL
same,Tmax,"[1]; male, beagle, dog, plasma, po, 5 mg/kg, dog CVRCVX, read-out: Tmax",30 min
same,Cmax,"[1]; male, beagle, dog, plasma, po, 5 mg/kg, dog CVSCCL, read-out: Cmax",240 ng/mL
"O=C(c1ccccn1)c1cnn2c(-c3ccncc3)ccnc12 [Ocinaplon Free base, pyridin-2-yl(7-(pyridin-4-yl)pyrazolo[1,5-a]pyrimidin-3-yl)methanone, reference compound]",Equilibrium Aqueous Solubility from Solid,[2],0.4 mM and 0.1 mg/ml
same,Tmax,[3]; [8],108 min
same,half-life,[3]; [8],96.6 min
same,AUC(0-inf),[3]; [9],37900 ng·h/mL
same,AUC(0-t),[3]; [9],37600 ng·h/mL
same,Cmax,[3]; [9],6250 ng/mL
same,AUC(0-inf),[3]; [10],63200 ng·h/mL
same,AUC(0-t),[3]; [10],62500 ng·h/mL
same,Cmax,[3]; [10],10400 ng/mL
"CC(=O)N(C)c1cccc(-c2ccnc3c(C(=O)c4cccs4)cnn23)c1 [indiplon HBr, N-methyl-N-{3-[3-(thiophene-2-carbonyl)-pyrazolo[1,5-a]pyrimidin-7-yl]-phenyl}acetamide HBr cocrystal]",Tmax compared to the free base,[1]; oral 5 mg free base/kg,not remarkably different
same,increase in the AUC versus free base,[1]; oral 5 mg free base/kg,226.8%
same,increase in the maximum plasma concentrations achieved (Cmax) versus free base,[1]; oral 5 mg free base/kg,69.7%
same,test animals with pharmaceutical profile superior to the corresponding free base,"[1]; oral 5 mg free base/kg, cross-over",5 out of 5
same,AUC(0-t),[1]; [11],567 ng·h/mL
same,Cmax,[1]; [11],314 ng/mL
same,Tmax,[1]; [11],48 min
same,AUC(0-t),"[1]; dog CTZBCG, listed as HBr Salt Suspension",1130 ng·h/mL
same,AUC(0-t),[1]; [12],429 ng·h/mL
same,Cmax,[1]; [12],253 ng/mL
same,AUC(0-t),[1]; [13],291 ng·h/mL
same,Cmax,[1]; [13],309 ng/mL
same,AUC(0-t),[1]; [14],258 ng·h/mL
same,Cmax,[1]; [14],227 ng/mL
same,AUC(0-t),[1]; [15],725 ng·h/mL
same,Cmax,[1]; [15],270 ng/mL
same,Tmax,[1]; [15],120 min
same,Cmax,"[1]; male, beagle, dog, plasma, po, 5 mg/kg, dog CTZBCG, read-out: Cmax",513 ng/mL
same,Tmax,"[1]; male, beagle, dog, plasma, po, 5 mg/kg, dog CTZBCG, read-out: Tmax",30 min
same,Tmax,"[1]; male, beagle, dog, plasma, po, 5 mg/kg, dog CUPBEG, read-out: Tmax",30 min
"CCN(C(C)=O)c1cccc(-c2ccnc3c(C#N)cnn23)c1.Cl [zaleplon HCl, Zaleplon Hydrochloride]",Cmax compared with the free base,"[4]; oral, calculated on a mg/kg dosing basis",essentially equivalent
same,AUC(0-inf),[4]; [16],2320 ng·h/mL
same,AUC(0-t),[4]; [16],2310 ng·h/mL
same,Cmax,[4]; [16],790 ng/mL
same,Tmax,[4]; [16],33 min
same,AUC(0-inf),[4]; [17],1820 ng·h/mL
same,AUC(0-t),[4]; [17],1820 ng·h/mL
same,Cmax,[4]; [17],1010 ng/mL
same,Tmax,[4]; [17],15 min
same,AUC(0-inf),[4]; [18],2010 ng·h/mL
same,AUC(0-t),[4]; [18],2010 ng·h/mL
same,Cmax,[4]; [18],642 ng/mL
same,Tmax,[4]; [18],30 min
same,AUC(0-inf),[4]; [19],1360 ng·h/mL
same,AUC(0-t),[4]; [19],1360 ng·h/mL
same,Cmax,[4]; [19],587 ng/mL
same,Tmax,[4]; [19],60 min
same,AUC(0-inf),[4]; [20],2650 ng·h/mL
same,AUC(0-t),[4]; [20],2650 ng·h/mL
same,Cmax,[4]; [20],820 ng/mL
same,Tmax,[4]; [20],30 min
same,AUC(0-inf),[4]; [21],3760 ng·h/mL
same,AUC(0-t),[4]; [21],3720 ng·h/mL
same,Cmax,[4]; [21],896 ng/mL
same,Tmax,[4]; [21],30 min
"CCN(C(C)=O)c1cccc(-c2ccnc3c(C#N)cnn23)c1 [zaleplon free base, N-[3-(3-cyanopyrazolo[1,5-a]pyrimidin-7-yl)phenyl]-N-ethylacetamide, reference compound]",Tmax,"[4]; 5 mg Free Base/kg, single oral dose 5.0 mg Free Base/kg, Mean of 5 dogs",66 min
same,AUC(0-inf),[4]; [22],6940 ng·h/mL
same,AUC(0-t),[4]; [22],6700 ng·h/mL
same,Cmax,[4]; [22],1590 ng/mL
same,AUC(0-inf),[4]; [23],6860 ng·h/mL
same,AUC(0-t),[4]; [23],6840 ng·h/mL
same,Cmax,[4]; [23],1850 ng/mL
same,Tmax,[4]; [23],60 min
same,AUC(0-inf),[4]; [24],7000 ng·h/mL
same,AUC(0-t),[4]; [24],6930 ng·h/mL
same,Cmax,[4]; [24],1460 ng/mL
same,Tmax,[4]; [24],60 min
same,AUC(0-inf),[4]; [25],3760 ng·h/mL
same,AUC(0-t),[4]; [25],3760 ng·h/mL
same,Cmax,[4]; [25],926 ng/mL
same,Tmax,[4]; [25],120 min
same,AUC(0-inf),[4]; [26],2550 ng·h/mL
same,AUC(0-t),[4]; [26],2550 ng·h/mL
same,Cmax,[4]; [26],1100 ng/mL
same,Tmax,[4]; [26],30 min
same,AUC(0-inf),[4]; [27],14500 ng·h/mL
same,AUC(0-t),[4]; [27],13400 ng·h/mL
same,Cmax,[4]; [27],2630 ng/mL
same,Tmax,[4]; [27],60 min
